# Results as given in patent publication US20140336220A1, “COMPOSITION FOR PREVENTING OR TREATING OBESITY COMPRISING REBAMIPIDE” (The Catholic University of Korea Industry-Academic …, priority 2011, published 2014).
# How the values were obtained:
# [1] = tested on: animal models induced with obesity; assay: Serum cholesterol, LDL-cholesterol and triglyceride, dose comparison; format: in vivo, mouse; settings: FIG. 7A
# Protocol: An experimental animal group was etherized and blood was collected from the heart. The collected blood was put into a centrifuge tube and centrifuged at 8000 rpm for 8 minutes at 20° C., so that the serum was separated.
# [2] = tested on: spleen cells; assay: Spleen cell proliferation after aCD3 stimulation, thymidine; format: cell-based, mouse; settings: FIG. 7B
# Protocol: The spleen was extracted from the mouse of each group and spleen cells 2×10^5 of each mouse were divided into a 96-well plate and stimulated with 0.5 μg/ml of aCD3 and then cultured for 3 days. 16 hours before acquirement, the cells were stimulated with thymidine of […], and then, 16 hours after stimulation, proliferation of the mouse cells was measured.
# [3] = tested on: adipocyte; assay: Real time PCR of adipogenic and brown fat genes in differentiated adipocyte; format: cell-based; settings: FIG. 9
# Protocol: The inventors of the present disclosure differentiated adipocyte by the method of Example <7-1>. 3 days after differentiation, differentiation of adipocyte was maintained with replacement with a culture medium added with dexamethasone and insulin once per two days, and after 4 days, the cells were treated with trizol and RNA was separated therefrom and cDNA was synthesized. Then, by real time PCR, mRNA expression of c/EBP, adiponectin, Leptin aP2, GLTU, and Cytochrome C1 as proadipogenic transcription factors was observed.
# [4] = tested on: animal group induced with obesity; assay: Brown fat to white fat ratio, interscapular region; format: in vivo, mouse; settings: 30 mg/kg and 100 mg/kg, vs animal group induced with obesity, FIG. 10
# Protocol: Thus, in order to check an effect of treatment with rebamipide on white fat and brown fat in vivo, the inventors of the present disclosure separated fat from an interscapular region of an animal group induced with obesity and a group treated with rebamipide with a dose of 30 mg/kg and 100 mg/kg and divided into white fat and brown fat. A weight of each of the white fat and the brown fat was measured, and an amount of the brown fat with respect to the white fat was calculated.
# [5] = tested on: animal model with collagen induced arthritis (CIA); assay: Histological inspection of joints in collagen induced arthritis model; format: in vivo, mouse; settings: 300 mg/kg oral, after 61 days, H&E, Toluidine blue, safranin O, FIG. 12
# Protocol: Each animal model with collagen induced arthritis (CIA) was orally administered with rebamipide with a dose of 300 mg/kg. After 61 days, euthanasia was administered to the experimental animals. Then, hind legs of the mouse were fixed with 10% formalin, and compounds of calcium were removed from the bone and paraffin was coated. A section of the joint (7 μm) was prepared and stained with hematoxylin and eosin. Further, in order to check damage of cartilage, a histological inspection was carried out by staining with Toluidine blue and safranin O.
# [6] = tested on: animal model with obesity induced arthritis; assay: Immunohistochemistry staining of inflammatory cytokines in joint; format: in vivo, mouse; settings: immunochemical staining, vs obesity induced arthritis group, FIG. 14
# Protocol: In order to check whether or not rebamipide of the present disclosure specifically can inhibit inflammatory cytokines such as IL-17, IL-6, IL-1b, TNF-a, and Nitrothyrosine in the joint of an animal model with obesity induced arthritis, the joint of a mouse was treated by the same method as illustrated in Example <9-2>. Then, inflammatory cytokines were stained by with an immunochemical staining method and analyzed with an optical microscope.
# [7] = tested on: Th17 cells and Treg cells in spleen; assay: Th17 and Treg cells in spleen of obesity induced arthritis model, confocal microscope; format: in vivo, mouse; settings: FIG. 15
# Protocol: Further, in order to investigate whether or not rebamipide affects Th17 and Treg, the inventors of the present disclosure embedded a frozen section (optimal cutting temperature compound: O.C.T. compound) using the spleen of a mouse and rapidly cooled the tissue in liquid nitrogen and attached the tissue on a slide to a thickness of 7 μm using a cryo microtome. Then, the section was fixed with acetone and coated with 10% normal goat serum and blocked from a non-specific reaction for 30 minutes. Thereafter, the section was reacted at 4° C. overnight with primary antibodies, that is, FITC-labeled anti-mFoxp3 Ab, PElabeled anti-mCD4 Ab, and APC-labeled anti-CD25 Ab, diluted with PBS (pH 7.5) at a ratio of 1:100 for Treg analysis and reacted with FITC-labeled anti-mCD4 Ab, and PE-labeled anti-mIL-17 for Th17 cell analysis. On the next day, the section was washed with a PBS solution, and a stained tissue was analyzed with a confocal microscope.
# [8] = tested on: STAT3; assay: STAT3 inhibition in spleen of obesity induced arthritis model, confocal microscope; format: in vivo, mouse; settings: FIG. 16
# Source text: In order to investigate whether or not rebamipide can inhibit STAT3, the inventors of the present disclosure extracted the spleen from a mouse in each group, and embedded a frozen section (optimal cutting temperature compound: O.C.T. compound) using the extracted spleen and rapidly cooled the tissue in liquid nitrogen and attached the tissue on a slide to a thickness of 7 μm using a cryo microtome. Then, the section was fixed with acetone and coated with 10% normal goat serum and blocked from a non-specific reaction for 30 minutes. Thereafter, the section was reacted at 4° C. overnight with primary antibodies, that is, FITC-labeled anti-mFoxp3 Ab, FITC labeled anti-mCD4 Ab, PE-labeled anti-p-STAT3 s727 Ab, and PE-labeled anti-p-STAT3 y705 Ab, diluted with PBS (pH 7.5) at a ratio of 1:50 for analyzing STAT3. On the next day, the section was washed with a PBS solution, and a stained tissue was analyzed with a confocal microscope.
# [9] = 100 mg/kg oral, compared between doses
# [10] = well treated with 20 μm of rebamipide
structure (smiles),measurement,setting,value
"O=C(NC(Cc1cc(=O)[nH]c2ccccc12)C(=O)O)c1ccc(Cl)cc1 (stereo not drawn) [rebamipide, 2-(4-chlorobenzoylamino)-3-[2(1H)-quinolinon-4-yl]propionic acid]",LDL-cholesterol in serum,[1]; 30 mg/kg and 100 mg/kg oral,statistically significantly reduced
same,cholesterol in serum,[1]; 30 mg/kg and 100 mg/kg oral,statistically significantly reduced
same,triglyceride in serum,[1]; 30 mg/kg and 100 mg/kg oral,statistically significantly reduced
same,"reduction effect on serum cholesterol, LDL-cholesterol and triglyceride",[1]; [9],generally highest
same,effect on proliferation of spleen cells,[2]; [9],higher
same,proliferation of spleen cells,"[2]; spleen cells of orally treated mice, 0.5 μg/ml aCD3, 3 days",inhibition of cell proliferation was decreased
same,mRNA expression of Cytochrome C1,[3]; differentiated adipocyte,reduced depending on a concentration of rebamipide
same,mRNA expression of GLTU,[3]; differentiated adipocyte,reduced depending on a concentration of rebamipide
same,mRNA expression of Leptin,[3]; differentiated adipocyte,reduced depending on a concentration of rebamipide
same,mRNA expression of aP2,[3]; differentiated adipocyte,reduced depending on a concentration of rebamipide
same,mRNA expression of adiponectin,[3]; differentiated adipocyte,reduced depending on a concentration of rebamipide
same,mRNA expression of c/EBP,[3]; differentiated adipocyte,reduced depending on a concentration of rebamipide
same,level of brown fat gene Cidea,[3]; [10],increased
same,level of brown fat gene Cox7a1,[3]; [10],increased
same,level of brown fat gene Elov13,[3]; [10],increased
same,level of brown fat gene Fgf21,[3]; [10],increased
same,ratio of the brown fat to the white fat,[4],increased
same,damage of the joint and cartilage (histology),[5],damage of the joint and cartilage was not severe and maintained similarly to a normal mouse
same,infiltration of IL-1b in joint,[6],inhibited
same,infiltration of IL-6 in joint,[6],inhibited
same,infiltration of IL-17 in joint,[6],inhibited
same,infiltration of Nitrothyrosine in joint,[6],inhibited
same,infiltration of TNF-a in joint,[6],inhibited
same,Treg cells in spleen,[7],increased
same,expression of Th17 in spleen,[7],reduced
same,p-STAT3 s705 in spleen,[8],decreased
same,p-STAT3 s727 in spleen,[8],decreased
